Laboratory results as given in patent US20090093517A1, “BIS1,2,3,4-TETRAHYDROISOQUINOLINE DERIVATIVES AND THEIR USES AS PHARMACEUTICALS” (UNIVERSITE DE LIEGE, priority 2006, published 2009).
Structures can show the parent of a compound that is named as a salt.

Target: apamin-sensitive sites of the SK channels
Experiment: Competition binding between 125I-apamin and bis-tetrahydroisoquinoline derivatives on rat cortical synaptosomes
Conditions: for Ki / potential to interact with apamin-sensitive sites compared with NML: comparison in words with N-Methyl-Laudanosine; for Ki: separated stereoisomers, rat cortical apamin sensitive sites, 125I-apamin; for % of 125I-apamin displaced at 10 μM: 10 μM compound, ±10 pM 125I-apamin, rat cortical synaptosomes, 1 h at 0° C.
Description: These experiments are used to evaluate the potency of the bis-tetrahydroisoquinoline derivatives to interact with the apamin-sensitive sites of the SK channels, the selected target for which a blockade is expected to be useful in the treatment of Alzheimer's disease, Parkinson's disease, schizophrenia, cognitive dysfunction, or depression. Two reference compounds are also tested for comparison
Rats (male Wistar, ±250 g) were killed by decapitation and the brains were quickly removed and kept on ice during dissection. Crude cortex was dispersed in 0.32 M sucrose by using a Pottero homogenizer. After a first centrifugation at 1500×g for 10 min, the supernatant was centrifuged at 25000×g for 10 min. The resulting pellet was dispersed in 5 mL 0.32 M sucrose to be aliquoted. Protein concentration was determined by the method of Hartree with bovine serum albumin as a standard.^36
The buffer consisted of a 10 mM Tris-HCl (pH 7.5) solution containing 5.4 mM KCl and 0.1% bovine serum albumin. The radioligand was ^125I-apamin (Perkin-Elmer, Specific activity 81.4 TBq mmol^−1). Glass fibre filters (Whatman GF/C) used in these experiments were coated for 1 h in 0.5% polyethylenimine and then washed with 2.5 mL of the ice-cold buffer just before use. Binding experiments were always terminated as follows. Aliquots were filtered under reduced pressure through Whatman filters. Filters were rapidly washed twice with 2.5 mL of buffer. The radioactivity remaining on the filter was evaluated with a Packard Tri-Carb 1600TR liquid scintillation analyser with an efficacy of 69%. ^125I-apamin binding to the filters was also estimated in the absence of synaptosomes. This binding was also substracted from the total binding. Curve fitting was carried out using GraphPad Prism.
Saturation Binding Experiments—Synaptosomes (0.2 mg of protein/mL) were incubated with increasing concentrations of ^125I-apamin (25 μL) with 975 μL of incubation buffer for 1 h at 0° C. Samples were then filtered on Whatman GF/C filter and the radioactivity was measured as described above. Non specific binding was determined in parallel experiments in the presence of an excess of unlabeled apamin (0.1 μM) and subtracted from the total binding to obtain the specific binding.
Competition Experiments between ^125I-apamin and Bis-tetrahydroisoquinoline derivatives—Synaptosomes (0.2 mg of protein/mL) were incubated for 1 h at 0° C. with ±10 pM of ^125I-apamin (25 μL) and nine concentrations of bis-tetrahydroisoquinoline derivatives (10^−4 to 10^−7 M). Non specific binding was determined in the presence of an excess of unlabeled apamin (0.1 μM). Samples were then filtered on Whatman filter and the radioactivity was measured as described above.

COc1cc2c(cc1OC)C(CCCCC1c3cc(OC)c(OC)cc3CCN1C)N(C)CC2.Cl (stereo not drawn) [Compound 4e E1, 1,4-bis[1-(6,7-dimethoxy-2-methyl-1,2,3,4-tetrahydroisoquinolyl)]-butane hydrochloride]
Ki / potential to interact with apamin-sensitive sites compared with NML: Ki superior to NML
Ki (listed as 4e E1, hydrochloride): 588 ± 72 nM

COc1cc2c(cc1OC)[C@@H](CCC[C@H]1c3cc(OC)c(OC)cc3CCN1C)N(C)CC2 [Compound 4d MESO, 1,3-bis[1-(6,7-dimethoxy-2-methyl-1,2,3,4-tetrahydroisoquinolyl)]-propane hydrochloride]
Ki: 1420 ± 116 nM

m-Bis[1-(2-methyl-1,2,3,4-tetrahydroisoquinolyl)]-xylene hydrochloride [Compound 4k]
% of 125I-apamin displaced at 10 μM: 29%

m-bis[1-(6,7,8-trimethoxy-2-methyl-1,2,3,4-tetrahydroisoquinolyl)]-xylene hydrochloride [Compound 4q]
% of 125I-apamin displaced at 10 μM: 60%

COc1cc2c(c(OC)c1OC)C(CCCCC1c3c(cc(OC)c(OC)c3OC)CCN1C)N(C)CC2.Cl (stereo not drawn) [Compound 4h, 1,4-bis[1-(6,7,8-trimethoxy-2-methyl-1,2,3,4-tetrahydroisoquinolyl)]-butane hydrochloride]
% of 125I-apamin displaced at 10 μM: 86%

COc1cc2c(cc1OC)C(Cc1cccc(CC3c4cc(OC)c(OC)cc4CCN3C)c1)N(C)CC2 (stereo not drawn) [Compound 4m E2]
Ki (listed as 4m E2): 1020 ± 27 nM

COc1cc2c(cc1OC)[C@@H](Cc1ccc(C[C@H]3c4cc(OC)c(OC)cc4CCN3C)cc1)N(C)CC2 [Compound 4n MESO]
Ki: 566 ± 26 nM

CN1CCc2ccccc2C1CCCCCC1c2ccccc2CCN1C.Cl (stereo not drawn) [Compound 4c, 1,5-bis[1-(2-methyl-1,2,3,4-tetrahydroisoquinolyl)]-pentane hydrochloride]
% of 125I-apamin displaced at 10 μM: 9%

m-bis[1-(6,7-dimethoxy-2-methyl-1,2,3,4-tetrahydroisoquinolyl)]-xylene hydrochloride [Compound 4n]
% of 125I-apamin displaced at 10 μM: 74%

COc1cc2c(cc1OC)C(CCCC1c3cc(OC)c(OC)cc3CCN1C)N(C)CC2 (stereo not drawn) [Compound 4d E1, 1,3-bis[1-(6,7-dimethoxy-2-methyl-1,2,3,4-tetrahydroisoquinolyl)]-propane hydrochloride]
Ki / potential to interact with apamin-sensitive sites compared with NML: Ki superior to NML
Ki compared with dequalinium (comparison in words with dequalinium): Ki quite similar to dequalinium
Ki (listed as 4d E1, hydrochloride): 293 ± 22 nM

p-bis[1-(6,7,8-trimethoxy-2-methyl-1,2,3,4-tetrahydroisoquinolyl)]-xylene [Compound 4r]
% of 125I-apamin displaced at 10 μM: 51%

COc1cc2c(cc1OC)C(CCCCCC1c3cc(OC)c(OC)cc3CCN1C)N(C)CC2 (stereo not drawn) [Compound 4f MESO, 1,5-bis[1-(6,7-dimethoxy-2-methyl-1,2,3,4-tetrahydroisoquinolyl)]-pentane hydrochloride]
Ki (listed as 4f MESO, hydrochloride): 731 ± 63 nM

Cc1cc(N)c2ccccc2[n+]1CCCCCCCCCC[n+]1c(C)cc(N)c2ccccc21 [DQ+, Dequalinium, reference compound]
Ki: 221 ± 11 nM

COc1cc2c(cc1OC)C(Cc1ccc(CC3c4cc(OC)c(OC)cc4CCN3C)cc1)N(C)CC2 (stereo not drawn) [Compound 4o, p-bis[1-(6,7-dimethoxy-2-methyl-1,2,3,4-tetrahydroisoquinolyl)]-xylene]
% of 125I-apamin displaced at 10 μM: 90%

COc1cc2c(c(OC)c1OC)C(CCCC1c3c(cc(OC)c(OC)c3OC)CCN1C)N(C)CC2 (stereo not drawn) [Compound 4g E2, 1,3-bis[1-(6,7,8-trimethoxy-2-methyl-1,2,3,4-tetrahydroisoquinolyl)]-propane hydrochloride]
Ki (listed as 4g E2, hydrochloride): 1100 ± 103 nM

COc1cc2c(cc1OC)C(CCCCCC1c3cc(OC)c(OC)cc3CCN1C)N(C)CC2.Cl (stereo not drawn) [Compound 4f E1, 1,5-bis[1-(6,7-dimethoxy-2-methyl-1,2,3,4-tetrahydroisoquinolyl)]-pentane hydrochloride]
Ki / potential to interact with apamin-sensitive sites compared with NML: Ki superior to NML
Ki (listed as 4f E1, hydrochloride): 592 ± 14 nM

COc1cc2c(c(OC)c1OC)C(CCCCC1c3c(cc(OC)c(OC)c3OC)CCN1C)N(C)CC2 (stereo not drawn) [Compound 4h E1, 1,4-bis[1-(6,7,8-trimethoxy-2-methyl-1,2,3,4-tetrahydroisoquinolyl)]-butane hydrochloride]
Ki (listed as 4h E1, hydrochloride): 2210 ± 156 nM

COc1cc2c(c(OC)c1OC)[C@@H](CCC[C@H]1c3c(cc(OC)c(OC)c3OC)CCN1C)N(C)CC2 [Compound 4g MESO, 1,3-bis[1-(6,7,8-trimethoxy-2-methyl-1,2,3,4-tetrahydroisoquinolyl)]-propane hydrochloride]
Ki: 1670 ± 77 nM

COc1cc2c(c(OC)c1OC)C(CCCCC1c3c(cc(OC)c(OC)c3OC)CCN1C)N(C)CC2.Cl (stereo not drawn) [Compound 4h MESO, 1,4-bis[1-(6,7,8-trimethoxy-2-methyl-1,2,3,4-tetrahydroisoquinolyl)]-butane hydrochloride]
Ki / potential to interact with apamin-sensitive sites compared with NML: Ki superior to NML
Ki (listed as 4h MESO, hydrochloride): 424 ± 33 nM

o-bis[1-(2-methyl-1,2,3,4-tetrahydroisoquinolyl)]-xylene hydrochloride [Compound 4j]
% of 125I-apamin displaced at 10 μM: 19%

p-bis[1-(2-methyl-1,2,3,4-tetrahydroisoquinolyl)]-xylene hydrochloride [Compound 4l]
% of 125I-apamin displaced at 10 μM: 27%

COc1cc2c(cc1OC)C(CCCCC1c3cc(OC)c(OC)cc3CCN1C)N(C)CC2 (stereo not drawn) [Compound 4e MESO, 1,4-bis[1-(6,7-dimethoxy-2-methyl-1,2,3,4-tetrahydroisoquinolyl)]-butane hydrochloride]
Ki (listed as 4e MESO, hydrochloride): 1070 ± 124 nM

COc1cc2c(cc1OC)C(Cc1ccc(CC3c4cc(OC)c(OC)cc4CCN3C)cc1)N(C)CC2 (stereo not drawn) [Compound 4n E1]
Ki (listed as 4n E1): 1010 ± 144 nM

COc1cc2c(cc1OC)C(Cc1ccc(CC3c4cc(OC)c(OC)cc4CCN3C)cc1)N(C)CC2 (stereo not drawn) [Compound 4n E2]
Ki (listed as 4n E2): 1120 ± 46 nM

o-bis[1-(6,7,8-trimethoxy-2-methyl-1,2,3,4-tetrahydroisoquinolyl)]-xylene hydrochloride [Compound 4p]
% of 125I-apamin displaced at 10 μM: 28%

COc1cc2c(cc1OC)C(CCCCCC1c3cc(OC)c(OC)cc3CCN1C)N(C)CC2 (stereo not drawn) [Compound 4f E2, 1,5-bis[1-(6,7-dimethoxy-2-methyl-1,2,3,4-tetrahydroisoquinolyl)]-pentane hydrochloride]
Ki (listed as 4f E2, hydrochloride): 1300 ± 39 nM

COc1cc2c(cc1OC)C(CCCCCC1c3cc(OC)c(OC)cc3CCN1C)N(C)CC2.Cl (stereo not drawn) [Compound 4f, 1,5-bis[1-(6,7-dimethoxy-2-methyl-1,2,3,4-tetrahydroisoquinolyl)]-pentane hydrochloride]
% of 125I-apamin displaced at 10 μM: 78%

COc1cc2c(c(OC)c1OC)C(CCCCC1c3c(cc(OC)c(OC)c3OC)CCN1C)N(C)CC2 (stereo not drawn) [Compound 4h E2, 1,4-bis[1-(6,7,8-trimethoxy-2-methyl-1,2,3,4-tetrahydroisoquinolyl)]-butane hydrochloride]
Ki (listed as 4h E2, hydrochloride): 746 ± 136 nM

COc1cc2c(cc1OC)C(CCCC1c3cc(OC)c(OC)cc3CCN1C)N(C)CC2 (stereo not drawn) [Compound 4d E2, 1,3-bis[1-(6,7-dimethoxy-2-methyl-1,2,3,4-tetrahydroisoquinolyl)]-propane hydrochloride]
Ki (listed as 4d E2, hydrochloride): 1880 ± 105 nM

COc1cc2c(c(OC)c1OC)C(CCCC1c3c(cc(OC)c(OC)c3OC)CCN1C)N(C)CC2.Cl (stereo not drawn) [Compound 4g, 1,3-bis[1-(6,7,8-trimethoxy-2-methyl-1,2,3,4-tetrahydroisoquinolyl)]-propane hydrochloride]
% of 125I-apamin displaced at 10 μM: 70%

CN1CCc2ccccc2C1CCCCC1c2ccccc2CCN1C.Cl (stereo not drawn) [Compound 4b, 1,4-bis[1-(2-methyl-1,2,3,4-tetrahydroisoquinolyl)]-butane hydrochloride]
% of 125I-apamin displaced at 10 μM: 16%
